Test results reported in patent US20100099561A1, “HETEROBICYCLIC ALKYLTHIO-BRIDGED ISOXAZOLINES” (E.I. DU PONT DE NEMOURS AND COMPANY, priority 2008, published 2010).

Legend:
Assay type in all cases: in vivo
[1] = tested on: barnyardgrass (Echinochloa crus-galli); assay: Test A preemergence, barnyardgrass; details: 0 to 100 scale (0 no effect, 100 complete control)
In short: (§1)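 Visual injury scored 0 (no effect) to 100 (complete control) against untreated plants roughly ten days after greenhouse treatment. Postemergence sprays hit one- to two-leaf plants 2–10 cm high; preemergence was a directed spray onto loam–sand soil, both using surfactant-containing solvent formulations.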

[2] = tested on: pigweed (Amaranthus retroflexus); assay: Test A preemergence, pigweed; details: 0 to 100 scale (0 no effect, 100 complete control)
In short: as §1

[3] = tested on: barnyardgrass (Echinochloa crus-galli); assay: Test B flooded paddy test, barnyardgrass; details: Flood
In short: (§2)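 2-leaf plants; pots flooded 3 cm above soil; compound added to paddy water; depth maintained. Greenhouse 13–15 d. Visual rating vs controls, 0 (no effect) to 100 (complete control); dash = no result.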

[4] = tested on: velvetleaf (Abutilon theophrasti); assay: Test A postemergence, velvetleaf; details: 0 to 100 scale (0 no effect, 100 complete control)
In short: as §1

[5] = tested on: ducksalad (Heteranthera limosa); assay: Test B flooded paddy test, ducksalad; details: Flood, scale 0 to 100
In short: as §2

[6] = tested on: morningglory (Ipomoea spp.); assay: Test A preemergence, morningglory; details: 0 to 100 scale (0 no effect, 100 complete control)
In short: as §1

[7] = tested on: umbrella sedge (Cyperus difformis); assay: Test B flooded paddy test, umbrella sedge; details: Flood, scale 0 to 100
In short: as §2

[8] = tested on: rice (Oryza sativa); assay: Test B flooded paddy test, rice; details: Flood, scale 0 to 100
In short: as §2

[9] = tested on: giant foxtail (Setaria faberi); assay: Test A preemergence, giant foxtail; details: 0 to 100 scale (0 no effect, 100 complete control)
In short: as §1

[10] = tested on: giant foxtail (Setaria faberi); assay: Test A postemergence, giant foxtail; details: 0 to 100 scale (0 no effect, 100 complete control)
In short: as §1

[11] = tested on: wheat (Triticum aestivum); assay: Test A preemergence, wheat; details: 0 to 100 scale (0 no effect, 100 complete control)
In short: as §1

[12] = tested on: velvetleaf (Abutilon theophrasti); assay: Test A preemergence, velvetleaf; details: 0 to 100 scale (0 no effect, 100 complete control)
In short: as §1

[13] = tested on: corn (Zea mays); assay: Test A preemergence, corn; details: 0 to 100 scale (0 no effect, 100 complete control)
In short: as §1

[14] = tested on: large crabgrass (Digitaria sanguinalis); assay: Test A preemergence, large crabgrass; details: 0 to 100 scale (0 no effect, 100 complete control)
In short: as §1

[15] = tested on: large crabgrass (Digitaria sanguinalis); assay: Test A postemergence, large crabgrass; details: 0 to 100 scale (0 no effect, 100 complete control)
In short: as §1

[16] = tested on: morningglory (Ipomoea spp.); assay: Test A postemergence, morningglory; details: 0 to 100 scale (0 no effect, 100 complete control)
In short: as §1

[17] = tested on: wheat (Triticum aestivum); assay: Test A postemergence, wheat; details: 0 to 100 scale (0 no effect, 100 complete control)
In short: as §1

[18] = tested on: barnyardgrass (Echinochloa crus-galli); assay: Test A postemergence, barnyardgrass; details: 0 to 100 scale (0 no effect, 100 complete control)
In short: as §1

[19] = tested on: corn (Zea mays); assay: Test A postemergence, corn; details: 0 to 100 scale (0 no effect, 100 complete control)
In short: as §1

[20] = tested on: pigweed (Amaranthus retroflexus); assay: Test A postemergence, pigweed; details: 0 to 100 scale (0 no effect, 100 complete control)
In short: as §1

[21] = 250 g ai/ha, scale 0 to 100 (0 no effect, 100 complete control)

Compound: CC1(C)CC([S+]([O-])Cc2c(C(F)(F)Cl)nc3n(c2=O)CCC3)=NO1 (centres unmarked) [Compound 17]
- Plant response rating, Barnyardgrass ([1]; 125 g ai/ha): 20
- Plant response rating, Barnyardgrass ([1]; 500 g ai/ha): 60
- Plant response rating, Pigweed ([2]; 125 g ai/ha): 0
- Plant response rating, Pigweed ([2]; 500 g ai/ha): 0
- Plant response rating, Barnyardgrass ([3]; 31 g ai/ha, scale 0 to 100): 0
- Plant response rating, Barnyardgrass ([3]; 62 g ai/ha, scale 0 to 100): 0
- Plant response rating, Barnyardgrass ([3]; 125 g ai/ha, scale 0 to 100): 0
- Plant response rating, Barnyardgrass [3, 21]: 0
- Plant response rating, Velvetleaf ([4]; 125 g ai/ha): 0
- Plant response rating, Velvetleaf ([4]; 500 g ai/ha): 10
- Plant response rating, Ducksalad ([5]; 31 g ai/ha): 0
- Plant response rating, Ducksalad ([5]; 62 g ai/ha): 0
- Plant response rating, Ducksalad ([5]; 125 g ai/ha): 0
- Plant response rating, Ducksalad ([5]; 250 g ai/ha): 0
- Plant response rating, Morningglory ([6]; 125 g ai/ha): 0
- Plant response rating, Morningglory ([6]; 500 g ai/ha): 0
- Plant response rating, Sedge, Umbrella ([7]; 31 g ai/ha): 0
- Plant response rating, Sedge, Umbrella ([7]; 62 g ai/ha): 0
- Plant response rating, Sedge, Umbrella ([7]; 125 g ai/ha): 0
- Plant response rating, Sedge, Umbrella ([7]; 250 g ai/ha): 0
- Plant response rating, Rice ([8]; 31 g ai/ha): 0
- Plant response rating, Rice ([8]; 62 g ai/ha): 0
- Plant response rating, Rice ([8]; 125 g ai/ha): 0
- Plant response rating, Rice ([8]; 250 g ai/ha): 0
- Plant response rating, Foxtail, Giant ([9]; 125 g ai/ha): 30
- Plant response rating, Foxtail, Giant ([9]; 500 g ai/ha): 80
- Plant response rating, Foxtail, Giant ([10]; 125 g ai/ha): 30
- Plant response rating, Foxtail, Giant ([10]; 500 g ai/ha): 60
- Plant response rating, Wheat ([11]; 125 g ai/ha): 0
- Plant response rating, Wheat ([11]; 500 g ai/ha): 0
- Plant response rating, Velvetleaf ([12]; 125 g ai/ha): 0
- Plant response rating, Velvetleaf ([12]; 500 g ai/ha): 0
- Plant response rating, Corn ([13]; 125 g ai/ha): 0
- Plant response rating, Corn ([13]; 500 g ai/ha): 0
- Plant response rating, Crabgrass, Large ([14]; 125 g ai/ha): 40
- Plant response rating, Crabgrass, Large ([14]; 500 g ai/ha): 80
- Plant response rating, Crabgrass, Large ([15]; 125 g ai/ha): 20
- Plant response rating, Crabgrass, Large ([15]; 500 g ai/ha): 50
- Plant response rating, Morningglory ([16]; 125 g ai/ha): 0
- Plant response rating, Morningglory ([16]; 500 g ai/ha): 0
- Plant response rating, Wheat ([17]; 125 g ai/ha): 0
- Plant response rating, Wheat ([17]; 500 g ai/ha): 20
- Plant response rating, Barnyardgrass ([18]; 125 g ai/ha): 0
- Plant response rating, Barnyardgrass ([18]; 500 g ai/ha): 60
- Plant response rating, Corn ([19]; 125 g ai/ha): 0
- Plant response rating, Corn ([19]; 500 g ai/ha): 0
- Plant response rating, Pigweed ([20]; 125 g ai/ha): 0
- Plant response rating, Pigweed ([20]; 500 g ai/ha): 10

Compound: CC1(C)CC([S+]([O-])Cc2c(C(F)(F)C(F)(F)F)nc3n(c2=O)CCS3)=NO1 (centres unmarked) [Compound 41]
- Plant response rating, Barnyardgrass ([1]; 125 g ai/ha): 0
- Plant response rating, Barnyardgrass ([1]; 500 g ai/ha): 60
- Plant response rating, Pigweed ([2]; 125 g ai/ha): 0
- Plant response rating, Pigweed ([2]; 500 g ai/ha): 0
- Plant response rating, Barnyardgrass ([3]; 31 g ai/ha, scale 0 to 100): 0
- Plant response rating, Barnyardgrass ([3]; 62 g ai/ha, scale 0 to 100): 0
- Plant response rating, Barnyardgrass ([3]; 125 g ai/ha, scale 0 to 100): 0
- Plant response rating, Barnyardgrass [3, 21]: 0
- Plant response rating, Velvetleaf ([4]; 125 g ai/ha): 0
- Plant response rating, Velvetleaf ([4]; 500 g ai/ha): 0
- Plant response rating, Ducksalad ([5]; 31 g ai/ha): 0
- Plant response rating, Ducksalad ([5]; 62 g ai/ha): 0
- Plant response rating, Ducksalad ([5]; 125 g ai/ha): 0
- Plant response rating, Ducksalad ([5]; 250 g ai/ha): 0
- Plant response rating, Morningglory ([6]; 500 g ai/ha): 0
- Plant response rating, Sedge, Umbrella ([7]; 31 g ai/ha): 0
- Plant response rating, Sedge, Umbrella ([7]; 62 g ai/ha): 0
- Plant response rating, Sedge, Umbrella ([7]; 125 g ai/ha): 0
- Plant response rating, Sedge, Umbrella ([7]; 250 g ai/ha): 0
- Plant response rating, Rice ([8]; 31 g ai/ha): 0
- Plant response rating, Rice ([8]; 62 g ai/ha): 0
- Plant response rating, Rice ([8]; 125 g ai/ha): 0
- Plant response rating, Rice ([8]; 250 g ai/ha): 0
- Plant response rating, Foxtail, Giant ([9]; 125 g ai/ha): 0
- Plant response rating, Foxtail, Giant ([9]; 500 g ai/ha): 80
- Plant response rating, Foxtail, Giant ([10]; 125 g ai/ha): 10
- Plant response rating, Foxtail, Giant ([10]; 500 g ai/ha): 60
- Plant response rating, Wheat ([11]; 125 g ai/ha): 0
- Plant response rating, Wheat ([11]; 500 g ai/ha): 0
- Plant response rating, Velvetleaf ([12]; 125 g ai/ha): 0
- Plant response rating, Velvetleaf ([12]; 500 g ai/ha): 0
- Plant response rating, Corn ([13]; 125 g ai/ha): 0
- Plant response rating, Corn ([13]; 500 g ai/ha): 0
- Plant response rating, Crabgrass, Large ([14]; 125 g ai/ha): 0
- Plant response rating, Crabgrass, Large ([14]; 500 g ai/ha): 80
- Plant response rating, Crabgrass, Large ([15]; 125 g ai/ha): 0
- Plant response rating, Crabgrass, Large ([15]; 500 g ai/ha): 50
- Plant response rating, Morningglory ([16]; 125 g ai/ha): 0
- Plant response rating, Morningglory ([16]; 500 g ai/ha): 10
- Plant response rating, Wheat ([17]; 125 g ai/ha): 0
- Plant response rating, Wheat ([17]; 500 g ai/ha): 40
- Plant response rating, Barnyardgrass ([18]; 125 g ai/ha): 30
- Plant response rating, Barnyardgrass ([18]; 500 g ai/ha): 70
- Plant response rating, Corn ([19]; 125 g ai/ha): 0
- Plant response rating, Corn ([19]; 500 g ai/ha): 40
- Plant response rating, Pigweed ([20]; 125 g ai/ha): 0
- Plant response rating, Pigweed ([20]; 500 g ai/ha): 0
